Assay results taken from ChEMBL document CHEMBL5723582, “Data for DCP probe T-10430” (2024).

Key:
[1] = molecular target: Pituitary adenylate cyclase-activating polypeptide type I receptor (Homo sapiens) (UniProt P41586); assay: RLU of ADCYAP1R1 at 1.0 µM in the […] PRESTO-Tango GPCRome screen; conditions: Compound concentration 1.0 uM
[2] = molecular target: Beta-3 adrenergic receptor (Homo sapiens) (UniProt P13945); assay: RLU of ADRB3 at 1.0 µM in the […] PRESTO-Tango GPCRome screen; conditions: Compound concentration 1.0 uM
[3] = molecular target: Type-1 angiotensin II receptor (Homo sapiens) (UniProt P30556); assay: RLU of AGTR1 at 1.0 µM in the […] PRESTO-Tango GPCRome screen; conditions: Compound concentration 1.0 uM
Type-1 angiotensin II receptor (Homo sapiens), sequence (P30556 whole entry): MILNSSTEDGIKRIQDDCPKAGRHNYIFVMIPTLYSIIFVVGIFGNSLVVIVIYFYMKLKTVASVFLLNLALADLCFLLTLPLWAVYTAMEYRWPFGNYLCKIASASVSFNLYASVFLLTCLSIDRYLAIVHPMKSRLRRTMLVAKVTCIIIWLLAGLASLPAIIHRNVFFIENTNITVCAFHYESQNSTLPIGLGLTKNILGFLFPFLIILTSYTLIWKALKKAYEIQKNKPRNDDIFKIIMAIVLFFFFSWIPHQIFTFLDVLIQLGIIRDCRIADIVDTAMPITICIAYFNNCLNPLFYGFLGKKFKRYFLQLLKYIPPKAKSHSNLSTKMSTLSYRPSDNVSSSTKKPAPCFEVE

[4] = molecular target: Apelin receptor (Homo sapiens) (UniProt P35414); assay: RLU of APJ at 1.0 µM in the […] PRESTO-Tango GPCRome screen; conditions: Compound concentration 1.0 uM
Apelin receptor (Homo sapiens), sequence (P35414 whole entry): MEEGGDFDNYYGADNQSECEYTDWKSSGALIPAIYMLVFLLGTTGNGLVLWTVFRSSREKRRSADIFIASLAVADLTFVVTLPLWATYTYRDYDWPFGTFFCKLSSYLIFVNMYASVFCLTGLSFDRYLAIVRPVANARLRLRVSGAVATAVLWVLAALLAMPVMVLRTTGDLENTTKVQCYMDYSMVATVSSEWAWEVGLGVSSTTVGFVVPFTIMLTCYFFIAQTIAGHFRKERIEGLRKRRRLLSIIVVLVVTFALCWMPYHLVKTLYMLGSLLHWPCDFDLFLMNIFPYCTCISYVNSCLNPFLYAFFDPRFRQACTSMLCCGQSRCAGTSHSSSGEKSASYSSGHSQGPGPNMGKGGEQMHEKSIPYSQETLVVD

[5] = molecular target: Cholecystokinin receptor type A (Homo sapiens) (UniProt P32238); assay: RLU of CCKAR at 1.0 µM in the […] PRESTO-Tango GPCRome screen; conditions: Compound concentration 1.0 uM
[6] = molecular target: C-X-C chemokine receptor type 1 (Homo sapiens) (UniProt P25024); assay: RLU of CXCR1 at 1.0 µM in the […] PRESTO-Tango GPCRome screen; conditions: Compound concentration 1.0 uM
[7] = molecular target: D(2) dopamine receptor (Homo sapiens) (UniProt P14416); assay: RLU of DRD2 at 1.0 µM in the […] PRESTO-Tango GPCRome screen; conditions: Compound concentration 1.0 uM
[8] = molecular target: Proteinase-activated receptor 4 (Homo sapiens) (UniProt Q96RI0); assay: RLU of F2RL3 at 1.0 µM in the […] PRESTO-Tango GPCRome screen; conditions: Compound concentration 1.0 uM
[9] = molecular target: Probable G-protein coupled receptor 132 (Homo sapiens) (UniProt Q9UNW8); assay: RLU of G2A at 1.0 µM in the […] PRESTO-Tango GPCRome screen; conditions: Compound concentration 1.0 uM
[10] = molecular target: Growth hormone-releasing hormone receptor (Homo sapiens) (UniProt Q02643); assay: RLU of GHRHR at 1.0 µM in the […] PRESTO-Tango GPCRome screen; conditions: Compound concentration 1.0 uM
[11] = molecular target: G-protein coupled estrogen receptor 1 (Homo sapiens) (UniProt Q99527); assay: RLU of GPER at 1.0 µM in the […] PRESTO-Tango GPCRome screen; conditions: Compound concentration 1.0 uM
G-protein coupled estrogen receptor 1 (Homo sapiens), sequence (Q99527 whole entry): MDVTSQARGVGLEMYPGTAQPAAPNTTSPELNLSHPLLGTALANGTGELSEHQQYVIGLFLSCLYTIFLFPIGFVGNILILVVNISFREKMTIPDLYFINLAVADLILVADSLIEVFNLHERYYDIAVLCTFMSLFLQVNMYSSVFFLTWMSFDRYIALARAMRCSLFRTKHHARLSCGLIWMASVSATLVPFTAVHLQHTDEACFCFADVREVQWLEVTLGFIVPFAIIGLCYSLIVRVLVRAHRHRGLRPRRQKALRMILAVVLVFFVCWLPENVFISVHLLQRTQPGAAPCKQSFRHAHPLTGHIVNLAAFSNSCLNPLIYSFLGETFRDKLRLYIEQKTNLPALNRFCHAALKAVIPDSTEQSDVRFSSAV

[12] = molecular target: Probable G-protein coupled receptor 160 (Homo sapiens) (UniProt Q9UJ42); assay: RLU of GPR160 at 1.0 µM in the […] PRESTO-Tango GPCRome screen; conditions: Compound concentration 1.0 uM
Probable G-protein coupled receptor 160 (Homo sapiens), sequence (Q9UJ42 whole entry): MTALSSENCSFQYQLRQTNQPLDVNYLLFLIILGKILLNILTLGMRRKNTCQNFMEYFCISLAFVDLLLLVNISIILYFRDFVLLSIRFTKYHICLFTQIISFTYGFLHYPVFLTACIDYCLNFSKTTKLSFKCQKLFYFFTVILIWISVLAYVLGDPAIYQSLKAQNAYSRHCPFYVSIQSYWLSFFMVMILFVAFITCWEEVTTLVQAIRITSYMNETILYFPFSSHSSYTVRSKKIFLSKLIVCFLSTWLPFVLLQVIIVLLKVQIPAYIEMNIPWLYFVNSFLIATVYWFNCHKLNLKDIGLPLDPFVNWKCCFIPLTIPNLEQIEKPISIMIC

[13] = molecular target: G-protein coupled receptor 161 (Homo sapiens) (UniProt Q8N6U8); assay: RLU of GPR161 at 1.0 µM in the […] PRESTO-Tango GPCRome screen; conditions: Compound concentration 1.0 uM
[14] = molecular target: Probable G-protein coupled receptor 162 (Homo sapiens) (UniProt Q16538); assay: RLU of GPR162 at 1.0 µM in the […] PRESTO-Tango GPCRome screen; conditions: Compound concentration 1.0 uM
Probable G-protein coupled receptor 162 (Homo sapiens), sequence (Q16538 whole entry): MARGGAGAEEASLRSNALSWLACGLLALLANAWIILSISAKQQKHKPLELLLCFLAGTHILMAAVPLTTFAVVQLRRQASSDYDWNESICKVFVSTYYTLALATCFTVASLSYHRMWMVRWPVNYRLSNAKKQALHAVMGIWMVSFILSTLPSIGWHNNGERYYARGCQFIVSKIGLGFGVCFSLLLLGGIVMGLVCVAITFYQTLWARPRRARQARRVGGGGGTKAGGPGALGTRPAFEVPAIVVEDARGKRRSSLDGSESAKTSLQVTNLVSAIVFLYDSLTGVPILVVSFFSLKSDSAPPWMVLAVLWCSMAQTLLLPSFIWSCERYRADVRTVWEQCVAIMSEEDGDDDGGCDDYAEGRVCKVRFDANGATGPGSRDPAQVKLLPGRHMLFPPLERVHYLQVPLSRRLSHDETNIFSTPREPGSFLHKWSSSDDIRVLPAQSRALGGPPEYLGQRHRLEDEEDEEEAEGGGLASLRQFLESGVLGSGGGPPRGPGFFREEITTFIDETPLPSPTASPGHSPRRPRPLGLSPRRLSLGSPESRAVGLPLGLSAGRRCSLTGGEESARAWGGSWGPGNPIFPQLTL

[15] = molecular target: G-protein coupled receptor 183 (Homo sapiens) (UniProt P32249); assay: RLU of GPR183 at 1.0 µM in the […] PRESTO-Tango GPCRome screen; conditions: Compound concentration 1.0 uM
G-protein coupled receptor 183 (Homo sapiens), sequence (P32249 whole entry): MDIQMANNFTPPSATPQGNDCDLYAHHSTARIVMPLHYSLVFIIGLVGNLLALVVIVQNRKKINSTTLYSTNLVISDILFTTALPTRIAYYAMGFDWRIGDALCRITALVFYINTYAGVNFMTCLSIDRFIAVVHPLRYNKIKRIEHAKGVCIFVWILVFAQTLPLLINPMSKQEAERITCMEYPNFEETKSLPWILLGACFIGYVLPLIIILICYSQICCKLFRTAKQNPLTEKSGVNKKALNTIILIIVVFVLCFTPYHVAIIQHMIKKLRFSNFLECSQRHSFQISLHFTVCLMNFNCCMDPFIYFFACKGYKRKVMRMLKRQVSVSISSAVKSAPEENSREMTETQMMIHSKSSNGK

[16] = molecular target: G-protein coupled receptor 22 (Homo sapiens) (UniProt Q99680); assay: RLU of GPR22 at 1.0 µM in the […] PRESTO-Tango GPCRome screen; conditions: Compound concentration 1.0 uM
[17] = molecular target: Prosaposin receptor GPR37 (Homo sapiens) (UniProt O15354); assay: RLU of GPR37 at 1.0 µM in the […] PRESTO-Tango GPCRome screen; conditions: Compound concentration 1.0 uM
[18] = molecular target: G-protein coupled receptor 78 (Homo sapiens) (UniProt Q96P69); assay: RLU of GPR78 at 1.0 µM in the […] PRESTO-Tango GPCRome screen; conditions: Compound concentration 1.0 uM
[19] = molecular target: G-protein coupled receptor family C group 5 member D (Homo sapiens) (UniProt Q9NZD1); assay: RLU of GPRC5D at 1.0 µM in the […] PRESTO-Tango GPCRome screen; conditions: Compound concentration 1.0 uM
[20] = molecular target: Metabotropic glutamate receptor 1 (Homo sapiens) (UniProt Q13255); assay: RLU of GRM1 at 1.0 µM in the Aequorin PRESTO-Tango GPCRome screen; conditions: Compound concentration 1.0 uM
Metabotropic glutamate receptor 1 (Homo sapiens), sequence (Q13255 19-1194 limits assumed): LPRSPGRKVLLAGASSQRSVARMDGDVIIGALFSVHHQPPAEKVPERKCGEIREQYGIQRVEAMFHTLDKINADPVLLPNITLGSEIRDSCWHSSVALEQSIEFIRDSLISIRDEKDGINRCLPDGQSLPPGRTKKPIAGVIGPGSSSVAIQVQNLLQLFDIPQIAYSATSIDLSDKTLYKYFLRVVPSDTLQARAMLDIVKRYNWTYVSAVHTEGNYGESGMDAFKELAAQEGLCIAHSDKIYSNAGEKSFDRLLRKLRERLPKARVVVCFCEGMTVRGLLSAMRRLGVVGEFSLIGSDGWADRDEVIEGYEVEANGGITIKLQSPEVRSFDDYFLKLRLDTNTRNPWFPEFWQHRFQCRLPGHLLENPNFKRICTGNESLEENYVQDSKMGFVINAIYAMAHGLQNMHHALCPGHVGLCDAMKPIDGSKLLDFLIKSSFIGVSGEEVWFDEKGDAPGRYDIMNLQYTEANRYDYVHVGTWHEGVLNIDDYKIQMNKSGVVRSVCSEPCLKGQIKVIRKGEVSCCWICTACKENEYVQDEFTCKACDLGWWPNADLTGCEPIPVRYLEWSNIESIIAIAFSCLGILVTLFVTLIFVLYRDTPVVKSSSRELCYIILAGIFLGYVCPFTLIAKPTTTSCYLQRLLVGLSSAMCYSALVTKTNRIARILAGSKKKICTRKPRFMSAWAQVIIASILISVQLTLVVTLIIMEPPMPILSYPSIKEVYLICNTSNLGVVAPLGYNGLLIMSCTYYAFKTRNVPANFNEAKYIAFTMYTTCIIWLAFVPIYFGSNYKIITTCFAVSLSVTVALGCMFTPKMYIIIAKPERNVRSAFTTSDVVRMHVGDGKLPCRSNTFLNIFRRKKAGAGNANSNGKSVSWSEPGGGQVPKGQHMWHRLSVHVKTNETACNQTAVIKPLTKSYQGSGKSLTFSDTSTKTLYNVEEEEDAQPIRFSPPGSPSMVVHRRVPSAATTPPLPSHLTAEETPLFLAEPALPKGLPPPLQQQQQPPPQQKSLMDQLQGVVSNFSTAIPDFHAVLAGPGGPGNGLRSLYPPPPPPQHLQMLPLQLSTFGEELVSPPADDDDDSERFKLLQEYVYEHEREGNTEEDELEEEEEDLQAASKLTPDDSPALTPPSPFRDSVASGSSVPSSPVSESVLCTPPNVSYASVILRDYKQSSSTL

[21] = molecular target: Hydroxycarboxylic acid receptor 2 (Homo sapiens) (UniProt Q8TDS4); assay: RLU of HCA2 at 1.0 µM in the Aequorin PRESTO-Tango GPCRome screen; conditions: Compound concentration 1.0 uM
[22] = molecular target: Hydroxycarboxylic acid receptor 3 (Homo sapiens) (UniProt P49019); assay: RLU of HCA3 at 1.0 µM in the Aequorin PRESTO-Tango GPCRome screen; conditions: Compound concentration 1.0 uM
[23] = molecular target: 5-hydroxytryptamine receptor 1A (Homo sapiens) (UniProt P08908); assay: RLU of HTR1A at 1.0 µM in the Aequorin PRESTO-Tango GPCRome screen; conditions: Compound concentration 1.0 uM
[24] = molecular target: 5-hydroxytryptamine receptor 7 (Homo sapiens) (UniProt P34969); assay: RLU of HTR7 at 1.0 µM in the […] PRESTO-Tango GPCRome screen; conditions: Compound concentration 1.0 uM
[25] = molecular target: Melanocortin receptor 4 (Homo sapiens) (UniProt P32245); assay: RLU of MC4R at 1.0 µM in the […] PRESTO-Tango GPCRome screen; conditions: Compound concentration 1.0 uM
[26] = molecular target: Melanin-concentrating hormone receptor 1 (Homo sapiens) (UniProt Q99705); assay: RLU of MCHR1 at 1.0 µM in the […] PRESTO-Tango GPCRome screen; conditions: Compound concentration 1.0 uM
Melanin-concentrating hormone receptor 1 (Homo sapiens), sequence (Q99705 whole entry): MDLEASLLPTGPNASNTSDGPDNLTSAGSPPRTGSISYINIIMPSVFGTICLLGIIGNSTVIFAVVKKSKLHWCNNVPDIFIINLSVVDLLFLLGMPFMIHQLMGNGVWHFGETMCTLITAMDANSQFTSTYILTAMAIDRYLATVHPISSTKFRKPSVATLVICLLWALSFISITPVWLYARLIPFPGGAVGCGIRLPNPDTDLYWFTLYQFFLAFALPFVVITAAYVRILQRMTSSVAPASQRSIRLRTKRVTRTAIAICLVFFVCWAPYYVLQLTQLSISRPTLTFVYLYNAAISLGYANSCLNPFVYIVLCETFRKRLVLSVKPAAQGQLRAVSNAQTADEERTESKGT

[27] = molecular target: Melatonin receptor type 1A (Homo sapiens) (UniProt P48039); assay: RLU of MTNR1A at 1.0 µM in the […] PRESTO-Tango GPCRome screen; conditions: Compound concentration 1.0 uM
[28] = molecular target: Neuropeptide Y receptor type 1 (Homo sapiens) (UniProt P25929); assay: RLU of NPY1R at 1.0 µM in the […] PRESTO-Tango GPCRome screen; conditions: Compound concentration 1.0 uM
[29] = molecular target: P2Y purinoceptor 11 (Homo sapiens) (UniProt Q96G91); assay: RLU of P2RY11 at 1.0 µM in the […] PRESTO-Tango GPCRome screen; conditions: Compound concentration 1.0 uM
[30] = molecular target: P2Y purinoceptor 14 (Homo sapiens) (UniProt Q15391); assay: RLU of P2RY14 at 1.0 µM in the […] PRESTO-Tango GPCRome screen; conditions: Compound concentration 1.0 uM
[31] = molecular target: P2Y purinoceptor 2 (Homo sapiens) (UniProt P41231); assay: RLU of P2RY2 at 1.0 µM in the […] PRESTO-Tango GPCRome screen; conditions: Compound concentration 1.0 uM
P2Y purinoceptor 2 (Homo sapiens), sequence (P41231 whole entry): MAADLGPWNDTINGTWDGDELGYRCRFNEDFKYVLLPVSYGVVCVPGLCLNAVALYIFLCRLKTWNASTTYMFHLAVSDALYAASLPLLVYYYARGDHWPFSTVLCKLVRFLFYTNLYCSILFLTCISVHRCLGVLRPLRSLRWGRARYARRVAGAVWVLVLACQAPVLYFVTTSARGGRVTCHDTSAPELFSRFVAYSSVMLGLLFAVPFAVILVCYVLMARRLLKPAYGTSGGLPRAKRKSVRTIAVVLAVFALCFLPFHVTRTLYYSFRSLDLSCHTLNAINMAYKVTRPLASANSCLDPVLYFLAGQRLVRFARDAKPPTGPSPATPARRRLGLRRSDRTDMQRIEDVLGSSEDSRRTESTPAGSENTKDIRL

[32] = molecular target: Relaxin-3 receptor 1 (Homo sapiens) (UniProt Q9NSD7); assay: RLU of RXFP3 at 1.0 µM in the […] PRESTO-Tango GPCRome screen; conditions: Compound concentration 1.0 uM
[33] = molecular target: Sphingosine 1-phosphate receptor 3 (Homo sapiens) (UniProt Q99500); assay: RLU of S1PR3 at 1.0 µM in the […] PRESTO-Tango GPCRome screen; conditions: Compound concentration 1.0 uM
[34] = molecular target: Thromboxane A2 receptor (Homo sapiens) (UniProt P21731); assay: RLU of TBXA2R at 1.0 µM in the […] PRESTO-Tango GPCRome screen; conditions: Compound concentration 1.0 uM
[35] = RLU of HCTR2 at 1.0 µM in the Aequorin PRESTO-Tango GPCRome screen; conditions: Homo sapiens; Compound concentration 1.0 uM

Pituitary adenylate cyclase-activating polypeptide type I receptor (Homo sapiens), sequence (P41586 21-468 limits assumed): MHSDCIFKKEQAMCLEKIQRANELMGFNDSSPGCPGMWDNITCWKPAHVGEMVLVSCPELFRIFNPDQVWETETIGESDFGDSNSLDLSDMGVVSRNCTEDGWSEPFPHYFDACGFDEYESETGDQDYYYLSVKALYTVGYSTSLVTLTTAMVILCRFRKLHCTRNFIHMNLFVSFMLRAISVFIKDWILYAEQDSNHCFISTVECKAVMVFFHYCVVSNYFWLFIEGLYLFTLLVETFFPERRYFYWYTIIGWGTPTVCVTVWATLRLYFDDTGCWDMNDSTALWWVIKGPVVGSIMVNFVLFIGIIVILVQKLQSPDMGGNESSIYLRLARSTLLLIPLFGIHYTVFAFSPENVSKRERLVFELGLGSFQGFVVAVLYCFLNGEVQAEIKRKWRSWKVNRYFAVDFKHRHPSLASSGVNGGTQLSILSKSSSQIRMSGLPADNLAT

CCCCC(=O)N1CC2(C1)CN(c1ccccc1-c1nnn[nH]1)C2
RLU [1]: 1630 | RLU [2]: 12400 | RLU [3]: 9130 | RLU [4]: 5300 | RLU [5]: 2840 | RLU [6]: 812 | RLU [7]: 2200 | RLU [8]: 125 | RLU [9]: -2780 | RLU [10]: -1060 | RLU [11]: -607 | RLU [12]: 1900 | RLU [13]: -2640 | RLU [14]: 6270 | RLU [15]: -6100 | RLU [16]: -1210 | RLU [17]: -1510 | RLU [18]: 5.41 | RLU [19]: 1.74 | RLU [20]: -511 | RLU [21]: -133 | RLU [22]: 1810 | RLU [23]: 1530 | RLU [24]: -1000 | RLU [25]: -2110 | RLU [26]: 5930 | RLU [27]: 466 | RLU [28]: -114 | RLU [29]: -216 | RLU [30]: -5260 | RLU [31]: 2250 | RLU [32]: 6610 | RLU [33]: -1650 | RLU [34]: 233 | RLU [35]: 2840
